The data set is described as follows: RP, Waters ACQUITY UPLC BEH C18, 100 × 1 mm, 1.7 µm, 50 °C, 0.3 mL/min, estimated dead time 0.17 min; A: water + 10 mM ammonium bicarbonate; B: 10% water + 90% methanol + 10 mM ammonium bicarbonate; gradient (min/%B) 0/0 15/100 21/100 22/0 30/0. The following applies: stereoisomer not certain.

As to `CC(=O)Nc1c(C)n(C)n(-c2ccccc2)c1=O` [N-Acetyl-4-aminoantipyrine], the LC retention time is 7.94 min.
The result for `NS(=O)(=O)c1cc(C2(O)NC(=O)c3ccccc32)ccc1Cl` (configuration not stated) [Chlorthalidon] reads 9.67 min.
The result for `N#Cc1c[nH]cc1-c1cccc2c1OC(F)(F)O2` [Fludioxonil] reads 14.4 min; that for `O=C(O)C=Cc1ccccc1O` [2-Hydroxycinnamic acid], 5 min.
The result for `O=C(O)CC[C@@H](C(=O)O)N(CC(=O)O)CC(=O)O` [N,N-Bis(carboxymethyl)-L-glutamic acid] reads 13 min.
Take `CC(C)(C)C(O)C(=Cc1ccc(Cl)cc1Cl)n1cncn1` (configuration not stated) [Diniconazole]: the LC retention time was 16.5 min.
The result for `Cc1nnc(NS(=O)(=O)c2ccc(N)cc2)s1` [Sulfamethizol] reads 5.94 min; that for `CNC(=O)CSP(=O)(OC)OC` [Omethoate], 6.12 min; that for `CCCCOCCOCCOCc1cc2c(cc1CCC)OCO2` [Piperonyl butoxide], 15.3 min.
The result for `CC(C)(c1ccc(O)c(-c2ccccc2)c1)c1ccc(O)c(-c2ccccc2)c1` [Bisphenol PH] reads 17.1 min; that for `CC#Cc1cc(C)nc(Nc2ccccc2)n1` [Mepanipyrim], 15 min.
The result for `NC12CC3CC(C1)CC(O)(C3)C2` [3-Amino-1-adamantanol] reads 10.4 min.
`CC1(C)CC(O)CC(C)(C)N1` [2,2,6,6-Tetramethylpiperidin-4-ol]: the LC retention time was 4.21 min.
The result for `C#CC(C)(C)NC(=O)c1cc(Cl)cc(Cl)c1` [Propyzamide] reads 14.6 min; that for `CC(=O)OCC12CCC(C)=CC1OC1C(O)C(OC(C)=O)C2(C)C12CO2` (configuration not stated) [Diacetoxyscirpenol], 12.1 min; that for `Nc1ccc(S(=O)(=O)Nc2ccccn2)cc1` [Sulfapyridine], 6.64 min.
The result for `CCOCCN(C(=O)CCl)C(=C(C)C)c1ccccc1` [Pethoxamid] reads 15.3 min; that for `Cc1cccc(C)c1N(Cn1cccn1)C(=O)CCl` [Metazachlor], 13.3 min; that for `Cc1c(NC=O)c(=O)n(-c2ccccc2)n1C` [N-Formyl-4-aminoantipyrine], 7.81 min.
The result for `NC1=NCCN1Cc1ccc(Cl)nc1` [Imidacloprid-guanidine] reads 6.72 min; that for `CCOP(=S)(OCC)Oc1ccc2c(C)c(Cl)c(=O)oc2c1` [Coumaphos], 15.9 min; that for `CN(CCO)CCO` [Methyl diethanolamine], 2.65 min.
As for `N#CSCSc1nc2ccccc2s1` [TCMTB], the LC retention time is 14.1 min.
The result for `CS(=O)(=O)OCC(O)C(O)COS(C)(=O)=O` (configuration not stated) [Treosulfan] reads 3.77 min; that for `CNCC(c1ccc(O)cc1)C1(O)CCCCC1` (racemic) [rac N,O-Didesmethyl Venlafaxine], 15.4 min; that for `CCC(C)(c1ccc(O)cc1)c1ccc(O)cc1` [Bisphenol B], 14.3 min.
The result for `Oc1ccc(C(c2ccccc2)(c2ccccc2)c2ccc(O)cc2)cc1` [Bisphenol BP] reads 15.9 min; that for `Cc1c(C(=O)c2c[nH]n(C)c2=O)ccc(S(C)(=O)=O)c1C1=NOCC1` [Topramezone], 7.42 min.
Regarding `NC12CC3CC(CC(C3)C1)C2` [Amantadine], the LC retention time is 10.5 min.
Turning to `O=C(O)c1cccc(Oc2ccccc2)c1` [3-Phenoxybenzoic acid], the LC retention time was 11.2 min.
The result for `CC(C)(C)c1ccc(CSc2cnn(C(C)(C)C)c(=O)c2Cl)cc1` [Pyridaben] reads 18.3 min; that for `CNC(=O)C=C(C)OP(=O)(OC)OC` [Monocrotophos (Crisodin)], 8.11 min; that for `CCN1CCN(C(=O)NC(C(=O)NC2C(=O)N3C(C(=O)O)=C(CSc4nnnn4C)CSC23)c2ccc(O)cc2)C(=O)C1=O` (configuration not stated) [Cefoperazone], 8.34 min.
The result for `CCCCCC=CCC=CCCCCCCCC(=O)O` [Linoleic acid] reads 17.6 min; that for `CC1COCc2cc3c(cc21)C(C)(C)C(C)C3(C)C` (configuration not stated) [Galaxolide], 18.2 min.
The result for `CC(COc1ccc(Oc2ccccc2)cc1)Oc1ccccn1` (configuration not stated) [Pyriproxyfen] reads 17.4 min; that for `C=C(c1ccc(C(=O)O)cc1)c1cc2c(cc1C)C(C)(C)CCC2(C)C` [Bexarotene], 17 min.
Take `CNC(=O)Oc1cc(C)cc(C(C)C)c1` [Promecarb]: the LC retention time was 15 min.
The result for `CSc1nc(N)nc(NC(C)(C)C)n1` [Irgarol-Metabolit 1 (Terbutryn-desethyl)] reads 13.4 min.
The result for `COC(=O)c1ccc(C(F)(F)F)nc1S(=O)(=O)NC(=O)Nc1nc(OC)cc(OC)n1` [Flupyrsulfuron-methyl] reads 10.4 min.
The result for `CC(=O)Nc1ccc(O)cc1` [Acetaminophen] reads 5.35 min.
On to `COC(=O)C(C)N(C(=O)Cc1ccccc1)c1c(C)cccc1C` (configuration not stated) [Benalaxyl], for which the LC retention time was 16 min.
On to `CC(N)C(O)c1ccccc1` (configuration not stated) [Cathine], for which the LC retention time was 8.36 min.
The result for `CC(=O)N(C)c1ccccc1` [N-Methylacetanilide] reads 11.2 min; that for `O=c1[nH]c2c(c(=O)n1C1CCCCC1)CCC2` [Lenacil], 13.1 min; that for `Cc1cc(C)nc(NS(=O)(=O)c2ccc(N)cc2)n1` [Sulfamethazine], 7.4 min.
The result for `CC1(c2ccc(Oc3ccccc3)cc2)OC(=O)N(Nc2ccccc2)C1=O` (configuration not stated) [Famoxadone] reads 16.1 min; that for `CC(C)N(C(=O)CCl)c1ccccc1` [Propachlor], 13.3 min.
The result for `CCCCCCCCCCCC[N+](C)(C)[O-]` [N,N-Dimethyldodecylamine N-oxide] reads 16.8 min; that for `CC(C)NCC(O)c1ccc(NS(C)(=O)=O)cc1` (configuration not stated) [Sotalol], 7.74 min; that for `CC(=O)N(CC(O)CO)c1c(I)c(C(=O)NCC(O)CO)c(I)c(C(=O)NCC(O)CO)c1I` (configuration not stated) [Iohexol], 5.51 min.
Turning to `CC(C)N(C(=O)C(=O)O)c1ccccc1` [Propachlor oxanilic acid (OA)], the LC retention time is 11.3 min.
The result for `Oc1ccc(C=Cc2cc(O)cc(O)c2)cc1` [Resveratrol] reads 15.4 min; that for `CC12CCC3c4ccc(O)cc4CCC3C1CCC2=O` (configuration not stated) [Estrone], 14.2 min; that for `CNC(=O)ON=C(C)C(C)S(C)(=O)=O` (configuration not stated) [Butoxycarboxim], 9.41 min.
The result for `Cc1ccc(C)c(O)c1C` [2,3,6-Trimethylphenol] reads 13.3 min; that for `CC(Oc1c(Cl)cc(Cl)cc1Cl)C(=O)O` (configuration not stated) [2,4,6-Fenoprop], 2 min.
The result for `CCN(CC)CC(=O)Nc1c(C)cccc1C` [Lidocaine] reads 14.9 min.
Take `CCCCCCS(=O)(=O)O` [1-Hexanesulfonic acid]: the LC retention time is 9.17 min.
The result for `CCNc1nc(NC(C)(C)C)nc(OC)n1` [Terbumeton] reads 14.3 min; that for `Cc1ccccc1N=C=O` [o-Tolyl isocyanate], 8.18 min; that for `CCNc1nc(NCC)nc(OC)n1` [Simeton], 11.6 min.
The result for `Cc1cc(C(C)(C)c2ccc(O)c(C)c2)ccc1O` [Bisphenol C] reads 13.9 min; that for `On1ccccc1=S` [Pyrithione], 9.52 min; that for `CC(C)C(=O)OCC(C)(C)C(OC(=O)C(C)C)C(C)C` (configuration not stated) [2,2,4-Trimethyl-1,3-pentanediol diisobutyrate], 17.4 min.
With `CNCC(O)c1ccc(O)c(O)c1` (configuration not stated) [Epinephrine], the LC retention time was 13.9 min.
The result for `O=C1NCCN1Cc1ccc(Cl)nc1` [Imidacloprid-urea] reads 8.68 min; that for `CC1(C)CC(=O)CC(C)(C)N1` [2,2,6,6-Tetramethyl-4 piperidone], 7.87 min; that for `CC1(C)CON(Cc2ccccc2Cl)C1=O` [Clomazone], 13.9 min.
The result for `C#CC1(O)CCC2C3CCc4cc(OC)ccc4C3CCC21C` (configuration not stated) [Mestranol] reads 14.3 min; that for `CCCCCSCCOCCOCCOCCO` [3,6,9-Trioxa-12-thia-heptadecanol], 14.6 min; that for `CCON=C(OC(=O)c1ccccc1)c1c(OC)ccc(Cl)c1OC` [Benzoximate], 16.3 min.
In the case of `N#CC(CCc1ccc(Cl)cc1)(Cn1cncn1)c1ccccc1` (configuration not stated) [Fenbuconazole], the LC retention time was 15.5 min.
The result for `CCCC(C)(COC(N)=O)COC(=O)NC(C)C` (configuration not stated) [Carisoprodol] reads 13.3 min; that for `CC(=O)SC1CC2=CC(=O)CCC2(C)C2CCC3(C)C(CCC34CCC(=O)O4)C12` (configuration not stated) [Spironolactone], 14.2 min.
The result for `c1ccc(OCCOc2ccccc2)cc1` [Ethylene glycol diphenylether] reads 13.5 min; that for `Cc1cccc(C)c1O` [2,6-Dimethylphenol], 12 min.
In the case of `CCN(CC)C(=O)C(C)Oc1cccc2ccccc12` (configuration not stated) [Napropamide], the LC retention time is 15.1 min.
The result for `CCC(C)Nc1nc(N)nc(Cl)n1` (configuration not stated) [Desethylsebutylazin] reads 11.5 min; that for `Nc1ccc(Cl)cc1` [4-Chloroaniline], 10.6 min; that for `Cn1c(=O)c2[nH]cnc2n(C)c1=O` [Theophyllin], 6.11 min.
The result for `Cn1c(=O)c2c(ncn2C)n(C)c1=O` [Caffeine] reads 7.78 min.

(Values after the RepoRT retention time repository (doi:10.1021/acs.analchem.1c00972).)
